# Active and inactive are the calls of the source. The rule behind the calls is not given here.
# Tests used:
# NCI-H322 = test: Induction of apoptosis in human NCI-H322 cells at 10 uM by Hoechst 33258 staining in presence of CuCl2; type: functional, cell-based
# NCI-H1299 = test: Cytotoxicity against human NCI-H1299 cells after 48 hrs by MTT assay; type: functional, cell-based; conditions: NCI-H1299, 48 h
# [1] = Cytotoxicity against human NCI-H322 cells after 48 hrs by MTT assay; type: functional, cell-based; conditions: NCI-H322, 48 h
# HUVEC = test: Cytotoxicity against HUVEC cells after 48 hrs by MTT assay; type: cell-based; conditions: Homo sapiens
compound,measurement,setting,value
CC(C)(C)c1ccc(Cn2nc(-c3ccccc3)cc2C(=O)N/N=C/c2ccccc2O)cc1,Activity,NCI-H322,Active
same,IC50,NCI-H1299,5.78 µM
same,IC50,[1],4.75 µM
same,IC50,HUVEC,2.23 µM

# From ChEMBL document CHEMBL1157031, “A novel copper complex of salicylaldehyde pyrazole hydrazone induces apoptosis through up-regulating integrin beta4 in H322 lung carcinoma cells” (Eur J Med Chem, 2010)
